Results published in PubChem BioAssay (NCI).
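48-hour exposure; five concentrations; linearly interpolated endpoints. The concentration for full growth arrest is given as TGI.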

Tests used:
Test in all cases: inhibition of tumour cell growth, NCI panel, 48 h
[1] = tested on: DU-145 prostate
[2] = tested on: TK-10 renal
[3] = tested on: 786-0 renal
[4] = tested on: SR leukemia
[5] = tested on: OVCAR-4 ovarian
[6] = tested on: MDA-MB-231 breast
[7] = tested on: SF-268 CNS
[8] = tested on: SNB-75 CNS
[9] = tested on: SK-OV-3 ovarian
[10] = tested on: NCI/ADR-RES ovarian
[11] = tested on: RPMI-8226 leukemia
[12] = tested on: SK-MEL-5 melanoma
[13] = tested on: HCT-116 colon
[14] = tested on: T-47D breast
[15] = tested on: CAKI-1 renal
[16] = tested on: IGROV1 ovarian
[17] = tested on: SK-MEL-2 melanoma
[18] = tested on: SF-295 CNS
[19] = tested on: NCI-H460 lung
[20] = tested on: HT29 colon
[21] = tested on: SN12C renal
[22] = tested on: UO-31 renal
[23] = tested on: MDA-N
[24] = tested on: OVCAR-3 ovarian
[25] = tested on: MALME-3M melanoma
[26] = tested on: PC-3 prostate
[27] = tested on: KM12 colon
[28] = tested on: OVCAR-5 ovarian
[29] = tested on: SW-620 colon
[30] = tested on: SNB-19 CNS
[31] = tested on: HS 578T breast
[32] = tested on: SK-MEL-28 melanoma
[33] = tested on: CCRF-CEM leukemia
[34] = tested on: NCI-H23 lung
[35] = tested on: HL-60(TB) leukemia
[36] = tested on: U251 CNS
[37] = tested on: LOX IMVI melanoma
[38] = tested on: HCT-15 colon
[39] = tested on: MOLT-4 leukemia
[40] = tested on: HCC-2998 colon
[41] = tested on: A498 renal
[42] = tested on: A549 NSCLC
[43] = tested on: HOP-62 NSCLC
[44] = tested on: COLO 205 colon
[45] = tested on: K-562 leukemia
[46] = tested on: ACHN renal
[47] = tested on: OVCAR-8 ovarian
[48] = tested on: MCF7 breast
[49] = tested on: UACC-257 melanoma
[50] = tested on: EKVX NSCLC
[51] = tested on: M14 melanoma
[52] = tested on: NCI-H226 lung
[53] = tested on: SF-539 CNS
[54] = tested on: MDA-MB-435
[55] = tested on: UACC-62 melanoma
[56] = tested on: RXF 393 renal

CC1CN=C(N(C(=O)Nc2ccccc2)c2ccccc2)S1 (stereo not drawn)
TGI [1]: > 100 µM
TGI [2]: 94.2 µM
TGI [3]: > 100 µM
TGI [4]: 81.5 µM
TGI [5]: > 100 µM
TGI [6]: > 100 µM
TGI [7]: > 100 µM
TGI [8]: > 100 µM
TGI [9]: > 100 µM
TGI [10]: 71.5 µM
TGI [11]: 67.9 µM
TGI [12]: 31.8 µM
TGI [13]: > 100 µM
TGI [14]: > 100 µM
TGI [15]: > 100 µM
TGI [16]: > 100 µM
TGI [17]: 40.5 µM
TGI [18]: > 100 µM
TGI [19]: > 100 µM
TGI [20]: 36.6 µM
TGI [21]: 62.9 µM
TGI [22]: > 100 µM
TGI [23]: 48.2 µM
TGI [24]: 82.2 µM
TGI [25]: 58.8 µM
TGI [26]: > 100 µM
TGI [27]: > 100 µM
TGI [28]: > 100 µM
TGI [29]: > 100 µM
TGI [30]: > 100 µM
TGI [31]: > 100 µM
TGI [32]: 31.9 µM
TGI [33]: 64 µM
TGI [34]: > 100 µM
TGI [35]: 66.4 µM
TGI [36]: > 100 µM
TGI [37]: 37.4 µM
TGI [38]: > 100 µM
TGI [39]: 61.6 µM
TGI [40]: > 100 µM
TGI [41]: 51.2 µM
TGI [42]: > 100 µM
TGI [43]: > 100 µM
TGI [44]: > 100 µM
TGI [45]: > 100 µM
TGI [46]: > 100 µM
TGI [47]: > 100 µM
TGI [48]: 49.7 µM
TGI [49]: 64.7 µM
TGI [50]: > 100 µM

CC(NNC(=S)N1CCCCCC1)c1cccnn1 (stereo not drawn)
TGI [1]: > 100 µM
TGI [2]: > 33.3 µM
TGI [3]: > 100 µM
TGI [4]: > 100 µM
TGI [6]: > 100 µM
TGI [8]: > 43.4 µM
TGI [9]: 20.7 µM
TGI [10]: > 88.8 µM
TGI [11]: > 100 µM
TGI [12]: 2.31 µM
TGI [14]: > 35.1 µM
TGI [15]: > 100 µM
TGI [17]: > 78.8 µM
TGI [51]: 4.94 µM
TGI [18]: > 39.6 µM
TGI [19]: > 21.6 µM
TGI [20]: > 100 µM
TGI [52]: > 43.4 µM
TGI [21]: > 100 µM
TGI [53]: 0.939 µM
TGI [22]: 2.67 µM
TGI [23]: > 100 µM
TGI [54]: > 56.2 µM
TGI [55]: 1.14 µM
TGI [56]: 0.57 µM
TGI [24]: > 100 µM
TGI [25]: > 100 µM
TGI [26]: > 100 µM
TGI [27]: > 100 µM
TGI [29]: > 100 µM
TGI [31]: > 100 µM
TGI [32]: > 34.5 µM
TGI [33]: 1.1 µM
TGI [34]: > 100 µM
TGI [35]: > 32.2 µM
TGI [36]: > 80.4 µM
TGI [37]: > 100 µM
TGI [38]: > 100 µM
TGI [39]: > 100 µM
TGI [40]: > 100 µM
TGI [41]: 9.82 µM
TGI [43]: > 32.5 µM
TGI [44]: > 100 µM
TGI [45]: > 58.7 µM
TGI [46]: 3.09 µM
TGI [47]: > 100 µM
TGI [48]: 0.901 µM
TGI [49]: 3.77 µM
